# Test results reported in patent US20170232083A1, “METHODS OF DIAGNOSIS AND TREATMENT OF CELIAC DISEASE IN CHILDREN” (priority 2014, published 2017).
# Where “and” joins values, the source holds several entries; their conditions need not be identical. Equal values may be shown once. Non-standard residues stand in square brackets, D forms with d. pGlu = O=C1CC[C@@H](C(=O)O)N1
# System: peripheral blood mononuclear cells obtained from children
# Experiment: IFNγ ELISpot PBMC assay after oral wheat bread challenge (Examples 1-2)
# Type: cell-based, human
# Procedure: An oral wheat bread challenge was conducted in DQ2.5+ children and adolescents having Celiac disease. The age ranges were 3-5, 6-10 and 11-18 years of age. An ELISpot peripheral blood mononucleated cell (PBMC) assay was performed to measure the level of IFNγ released by the PBMCs after being contacted with peptide 1, peptide 2, peptide 3, or a combination thereof. The identities of peptides 1, 2, and 3 are shown below.
# The values the rows starting from “Blank (SFU)” and ending at “Pept-1/2/3 (150)” are all spot forming unit (SFU) values. The values in the parentheses in the first column are the concentration of each peptide in micrograms that were added to the PBMCs (e.g., Pept-1 50=50 micrograms of Peptide 1, Pept-1/2/3 50=50 micrograms of each of Peptide 1, Peptide 2, and Peptide 3). Pept-1=Peptide 1, Pept-2=Peptide 2, Pept-3=Peptide 3, the amino acid identities of which are mentioned above. D-Gli=deamidated gliadin. WT-Gli=wild-type gliadin. D-Glut=deamidated gluten. WT-Glut=wild-type gluten.
# IFNγ ELISpot responses in 9 older children (11-17 yo) and 6 younger children (3-10 yo) were stimulated by the mixture of peptides 1, 2, and 3 described in Example 1 (each peptide at a concentration of 25 ug/mL) or stimulated by deamidated gliadin (100 ug/mL) after 3-day wheat challenge (r2=0.8, p<0.0001). The ELISpot responses were similar using either the peptide mixture of the deamidated gliadin (FIG. 1).
sequence,measurement,setting,value
EPEQPIPEQPQPYPQQ ([pGlu]PEQPIPEQPQPYPQQ-NH2; SMILES CC[C@H](C)[C@H](NC(=O)[C@@H]1CCCN1C(=O)[C@H](CCC(N)=O)NC(=O)[C@H](CCC(=O)O)NC(=O)[C@@H]1CCCN1C(=O)[C@@H]1CCC(=O)N1)C(=O)N1CCC[C@H]1C(=O)N[C@@H](CCC(=O)O)C(=O)N[C@@H](CCC(N)=O)C(=O)N1CCC[C@H]1C(=O)N[C@@H](CCC(N)=O)C(=O)N1CCC[C@H]1C(=O)N[C@@H](Cc1ccc(O)cc1)C(=O)N1CCC[C@H]1C(=O)N[C@@H](CCC(N)=O)C(=O)N[C@@H](CCC(N)=O)C(N)=O) [Peptide 3],"SFU, IFNγ ELISpot","Subject A, 5.0 × 10^5 cells per well, 50 micrograms",0 SFU
same,"SFU, IFNγ ELISpot","Subject C, 5.0 × 10^5 cells per well, 50 micrograms",3 SFU
same,"SFU, IFNγ ELISpot","Subject D, 4.0 × 10^5 cells per well, 25 micrograms, listed as Pept-3",2 SFU and 4 SFU
same,"SFU, IFNγ ELISpot","Subject D, 4.0 × 10^5 cells per well, 50 micrograms",2 SFU
same,"SFU, IFNγ ELISpot","Subject D, 4.0 × 10^5 cells per well, 100 micrograms, listed as Pept-3",2 SFU and 4 SFU
same,"SFU, IFNγ ELISpot","Subject E, 5.0 × 10^5 cells per well, 25 micrograms",3 SFU
same,"SFU, IFNγ ELISpot","Subject E, 5.0 × 10^5 cells per well, 50 micrograms",6 SFU
same,"SFU, IFNγ ELISpot","Subject E, 5.0 × 10^5 cells per well, 100 micrograms, listed as Pept-3",3 SFU and 4 SFU
same,"SFU, IFNγ ELISpot","Subject G, 4.0 × 10^5 cells per well, 25 micrograms",0 SFU
same,"SFU, IFNγ ELISpot","Subject H, 3.5 × 10^5 cells per well, 25 micrograms, listed as Pept-3",1 SFU and 2 SFU
same,"SFU, IFNγ ELISpot","Subject H, 3.5 × 10^5 cells per well, 50 micrograms, listed as Pept-3",2 SFU and 4 SFU
same,"SFU, IFNγ ELISpot","Subject I, 5.0 × 10^5 cells per well, 50 micrograms",1 SFU
same,"SFU, IFNγ ELISpot","Subject J, 5.0 × 10^5 cells per well, 25 micrograms, listed as Pept-3",4 SFU and 2 SFU
same,"SFU, IFNγ ELISpot","Subject J, 5.0 × 10^5 cells per well, 50 micrograms, listed as Pept-3",2 SFU and 3 SFU
same,"SFU, IFNγ ELISpot","Subject J, 5.0 × 10^5 cells per well, 100 micrograms, listed as Pept-3",1 SFU and 2 SFU
same,"SFU, IFNγ ELISpot","Subject K, 3.2 × 10^5 cells per well, 25 micrograms, listed as Pept-3",2 SFU and 3 SFU
same,"SFU, IFNγ ELISpot","Subject K, 3.2 × 10^5 cells per well, 50 micrograms, listed as Pept-3",2 SFU and 1 SFU
same,"SFU, IFNγ ELISpot","Subject L, 3.5 × 10^5 cells per well, 25 micrograms",1 SFU
same,"SFU, IFNγ ELISpot","Subject M, 2.3 × 10^5 cells per well, 25 micrograms",0 SFU
same,"SFU, IFNγ ELISpot","Subject M, 2.3 × 10^5 cells per well, 100 micrograms",0 SFU
same,"SFU, IFNγ ELISpot","Subject N, 2.4 × 10^5 cells per well, 50 micrograms, listed as Pept-3",2 SFU and 1 SFU
same,"SFU, IFNγ ELISpot","Subject N, 2.4 × 10^5 cells per well, 100 micrograms",0 SFU
same,"SFU, IFNγ ELISpot","Subject P, 3.0 × 10^5 cells per well, 50 micrograms, listed as Pept-3",8 SFU and 6 SFU
same,"SFU, IFNγ ELISpot","Subject Q, 3.0 × 10^5 cells per well, 50 micrograms, listed as Pept-3",1 SFU and 2 SFU
same,"SFU, IFNγ ELISpot","Subject R, 3.0 × 10^5 cells per well, 50 micrograms, listed as Pept-3",12 SFU and 9 SFU
same,"SFU, IFNγ ELISpot","Subject W, 3.0 × 10^5 cells per well, 50 micrograms",8 SFU
same,"SFU, IFNγ ELISpot","Subject Y, 2.29 × 10^5 cells per well, 50 micrograms",3 SFU
same,T cell response in PBMC samples from children after gluten challenge,"general increase in SFU in each child, Tables 2-5",induce a T cell response
